In patent US20220306695A1, “COMPSTATIN ANALOGUES AND THEIR MEDICAL USES” (priority 2019, published 2022):
Positions of bridges follow the written chain, without caps; N, C: chain ends. Non-standard residues stand in square brackets, D forms with d. Residues, ends and D or L forms follow the SMILES beside them. Sar = CNCC(=O)O

test system: classical complement pathway; assay: In vitro haemolysis assay (inhibition of classical complement pathway); format: cell-based, human; settings: Table 3; human serum, sensitized sheep red blood cells; read-out: IC50[nM], in vitro analysis of inhibition of hemolysis
Protocol: Method The in vitro effect of test compounds was assessed by measuring their inhibitory effect of the classical complement pathway in a haemolysis assay. Briefly, test compounds and reference compounds were dissolved in DMSO and diluted in Tris/Casein Assay Buffer (10 mM Tris, 145 mM NaCl, 0.5 mM MgCl2, 0.15 mM CaCl2, and 0.1% W/V Casein, adjusted to pH 7.4) as 9-point serial dilutions in a 96 well plate. Sensitized sheep red blood cells (RBC) coated with rabbit anti-sheep erythrocyte antiserum (Complement Technology, Inc., TX, USA) were washed in Tris/Casein Assay Buffer. 50 μL from each well of diluted compound was added to a 96-well plate containing 50 μL diluted human serum (Complement Technology, Inc., TX, USA) and incubated for 15 minutes at room temperature. The serum dilution factor was optimized for every serum batch to obtain 70-90% of maximal haemolysis using the protocol. Then 50 μL sensitized sheep red blood cells were added to all wells ([…] per well). After 30 minutes of incubation at 37° C. with gentle agitation, the reaction was stopped by addition of 50 μL Tris STOP Buffer per well (10 mM EDTA, 10 mM Tris, 145 mM NaCl adjusted to pH 7.4). The RBCs were then removed by centrifugation and the resulting supernatant measured for hemolysis by absorbance at 405 nm. The response was normalized relative to a positive and negative control (vehicle) to calculate the IC50 from the concentration response curve using the 4-parameter logistic (4PL) nonlinear model for curve fitting.

SMILES	IC50
CC[C@H](C)[C@H](NC(C)=O)C(=O)N[C@H]1CSSC[C@@H](C(=O)N[C@H](C(=O)NCC(=O)N[C@@H](C)C(=O)N[C@@H](CCC(=O)O)C(=O)N[C@@H](CO)C(N)=O)[C@@H](C)O)NC(=O)[C@H](CCCNC(=N)N)NC(=O)[C@H](Cc2c[nH]cn2)NC(=O)[C@H](C)NC(=O)CNC(=O)[C@H](Cc2c[nH]c3ccccc23)NC(=O)[C@H](CCCCN)NC(=O)[C@H](CCC(N)=O)NC(=O)[C@H](Cc2c[nH]c3ccccc23)NC(=O)[C@H]([C@@H](C)CC)NC1=O [Compound 8] (Ac-ICIWQKWGAHRCTGAES-NH2; disulfide 2-12)	< 500 nM
CC[C@H](C)[C@@H]1NC(=O)[C@@H](NC(=O)[C@H](Cc2ccc(O)cc2)NC(C)=O)CSSC[C@@H](C(=O)N[C@H](C(N)=O)[C@@H](C)O)NC(=O)[C@H](CCCNC(=N)N)NC(=O)[C@H](Cc2c[nH]cn2)NC(=O)[C@H](CCC(=O)O)NC(=O)CNC(=O)[C@H](Cc2c[nH]c3ccccc23)NC(=O)[C@H](CC(=O)O)NC(=O)[C@H](CCC(N)=O)NC(=O)[C@H](Cc2c[nH]c3ccccc23)NC1=O [Compound 9] (Ac-YCIWQDWGEHRCT-NH2; disulfide 2-12)	< 100 nM
CC[C@H](C)[C@@H]1NC(=O)[C@@H](NC(=O)[C@H](Cc2ccc(O)cc2)NC(=O)[C@H](C)NC(=O)[C@H](CO)NC(=O)[C@H](CO)NC(=O)[C@H](CCC(=O)O)NC(C)=O)CSSC[C@@H](C(=O)N[C@H](C(N)=O)[C@@H](C)O)NC(=O)[C@H](CCCNC(=N)N)NC(=O)[C@H](Cc2c[nH]cn2)NC(=O)[C@H](CCC(=O)O)NC(=O)CNC(=O)[C@H](Cc2c[nH]c3ccccc23)NC(=O)[C@H](CC(=O)O)NC(=O)[C@H](CCC(N)=O)NC(=O)[C@H](Cc2c[nH]c3ccccc23)NC1=O [Compound 10] (Ac-ESSAYCIWQDWGEHRCT-NH2; disulfide 6-16)	< 100 nM
CC[C@H](C)[C@@H]1NC(=O)[C@@H](NC(=O)CN(C)C(C)=O)CSSC[C@@H](C(=O)N[C@H](C(N)=O)[C@@H](C)O)NC(=O)[C@H](CCCNC(=N)N)NC(=O)[C@H](Cc2c[nH]cn2)NC(=O)[C@H](CCC(=O)O)NC(=O)CNC(=O)[C@H](Cc2c[nH]c3ccccc23)NC(=O)[C@H](CC(=O)O)NC(=O)[C@H](CCC(N)=O)NC(=O)[C@H](Cc2c[nH]c3ccccc23)NC1=O [Compound 11] (Ac-[Sar]CIWQDWGEHRCT-NH2; disulfide 2-12)	< 100 nM
CC[C@H](C)[C@H](NC(C)=O)C(=O)N[C@H]1CSSC[C@@H](C(=O)N[C@@H](CCC(=O)O)C(N)=O)NC(=O)[C@H](CCCNC(=N)N)NC(=O)[C@H](Cc2c[nH]cn2)NC(=O)[C@H](C)NC(=O)CNC(=O)[C@H](Cc2c[nH]c3ccccc23)NC(=O)[C@H](CC(=O)O)NC(=O)[C@H](CCC(N)=O)NC(=O)[C@H](Cc2c[nH]c3ccccc23)NC(=O)[C@H]([C@@H](C)CC)NC1=O [Compound 12] (Ac-ICIWQDWGAHRCE-NH2; disulfide 2-12)	< 100 nM
CC[C@H](C)[C@H](NC(C)=O)C(=O)N[C@H]1CSSC[C@@H](C(=O)N(C)CC(N)=O)NC(=O)[C@H](CCCNC(=N)N)NC(=O)[C@H](Cc2c[nH]cn2)NC(=O)[C@H](CCC(=O)O)NC(=O)CNC(=O)[C@H](Cc2c[nH]c3ccccc23)NC(=O)[C@H](CC(=O)O)NC(=O)[C@H](CCC(N)=O)NC(=O)[C@H](Cc2c[nH]c3ccccc23)NC(=O)[C@H]([C@@H](C)CC)NC1=O [Compound 13] (Ac-ICIWQDWGEHRC[Sar]-NH2; disulfide 2-12)	< 100 nM
CC[C@H](C)[C@H](NC(C)=O)C(=O)N[C@H]1CSSC[C@@H](C(=O)N[C@H](C(N)=O)[C@@H](C)O)NC(=O)[C@H](CCCNC(=N)N)NC(=O)[C@H](Cc2c[nH]cn2)NC(=O)[C@H](CCC(=O)O)NC(=O)CNC(=O)[C@H](Cc2c[nH]c3ccccc23)NC(=O)[C@H](CCC(=O)O)NC(=O)[C@H](CCC(N)=O)NC(=O)[C@H](Cc2c[nH]c3ccccc23)NC(=O)[C@H]([C@@H](C)CC)NC1=O [Compound 16] (Ac-ICIWQEWGEHRCT-NH2; disulfide 2-12)	< 100 nM
